From ChEMBL document CHEMBL1134487, “Design, synthesis, and biological evaluation of analogues of the antitumor agent, 2-(4-[(7-chloro-2-quinoxalinyl)oxy]phenoxy)propionic acid (XK469)” (2001)
Calls of active or inactive are those of the source. The rule behind the calls is not given here.

Legend:
[1] = tested on: Mus musculus; assay: In vivo activity tested against C3H mice bearing panc-03 murine tumor measured as% treated/control calculated at 477 mg/kg (po); type: functional
[2] = tested on: Mus musculus; assay: In vivo activity tested against C3H mice bearing panc-03 murine tumor measured as body weight loss at 477 mg/kg (po); type: functional
[3] = tested on: Mus musculus; assay: In vivo activity tested against C3H mice bearing panc-03 murine tumor measured as log Kill value was based on tumors that grew at 477 mg/kg (po); kill value was NIL; type: functional, organism-based; parameters: dose 477 mg/kg
[4] = tested on: Mus musculus; assay: In vivo activity tested against C3H mice bearing panc-03 murine tumor; type: functional
[5] = tested on: Mus musculus; assay: In vivo activity tested against C3H mice bearing colon adenocarcinoma -38(colon-38) tumor measured as activity rating at 1590 mg/kg (po); type: functional
[6] = tested on: Mus musculus; assay: In vivo activity tested against C3H mice bearing colon adenocarcinoma -38(colon-38) tumor measured as log Kill value was based on tumors that grew at 1590 mg/kg (po); None; type: functional, organism-based; parameters: dose 1590 mg/kg
[7] = tested on: Mus musculus; assay: In vivo activity tested against C3H mice bearing colon adenocarcinoma -38(colon-38) tumor measured as body weight loss at 1590 mg/kg (po); type: functional
[8] = tested on: Mus musculus; assay: In vivo activity tested against C3H mice bearing colon adenocarcinoma -38(colon-38) tumor measured as % treated/control calculated at 1590 mg/kg (po); type: functional
[9] = tested on: Mus musculus; assay: In vivo activity tested against C3H mice bearing panc-03 murine tumor measured as % treated/control calculated at 2300 mg/kg (po); type: functional
[10] = tested on: Mus musculus; assay: In vivo activity tested against C3H mice bearing panc-03 murine tumor measured as body weight loss at 2300 mg/kg (po); type: functional
[11] = tested on: Mus musculus; assay: In vivo activity tested against C3H mice bearing panc-03 murine tumor measured as log Kill value was based on tumors that grew at 2300 mg/kg (po); type: functional, organism-based; parameters: dose 2300 mg/kg
[12] = tested on: Mus musculus; assay: In vivo activity tested against C3H mice bearing panc-03 murine tumor measured as % treated/control calculated at 480 mg/kg (po); type: functional
[13] = tested on: Mus musculus; assay: In vivo activity tested against C3H mice bearing panc-03 murine tumor measured as cures at 2300 mg/kg (po); 1/5 cures; type: functional
[14] = tested on: Mus musculus; assay: In vivo activity tested against C3H mice bearing panc-03 murine tumor measured as body weight loss at 480 mg/kg (po); type: functional
[15] = tested on: Mus musculus; assay: In vivo activity tested against C3H mice bearing panc-03 murine tumor measured as log Kill value was based on tumors that grew at 480 mg/kg (po); type: functional, organism-based; parameters: dose 480 mg/kg
[16] = tested on: Mus musculus; assay: In vivo activity tested against C3H mice bearing panc-03 murine tumor measured as body weight loss at 939 mg/kg (po); type: functional
[17] = tested on: Mus musculus; assay: In vivo activity tested against C3H mice bearing panc-03 murine tumor measured as log Kill value was based on tumors that grew at 939 mg/kg (po); type: functional, organism-based; parameters: dose 939 mg/kg
[18] = tested on: Mus musculus; assay: In vivo activity tested against C3H mice bearing panc-03 murine tumor measured as % treated/control calculated at 939 mg/kg (po); type: functional
[19] = tested on: Mus musculus; assay: In vivo activity tested against C3H mice bearing panc-03 murine tumor at a dose of 330mg/kg, measured as activity rating; type: functional
[20] = tested on: Mus musculus; assay: In vivo activity tested against C3H mice bearing Mam 17/Adr murine tumor at a dose of 330 mg/kg, measured as activity rating; type: functional
[21] = tested on: Mus musculus; assay: In vivo activity tested against C3H mice bearing panc-03 murine tumor at a dose of 330mg/kg, measured as % treated/control; type: functional
[22] = tested on: Mus musculus; assay: In vivo activity tested against C3H mice bearing colon adenocarcinoma -38(colon-38) tumor, measured as cures at 753 mg/kg (po); 2/5 cures; type: functional
[23] = tested on: Mus musculus; assay: In vivo activity tested against C3H mice bearing colon adenocarcinoma -38(colon-38) tumor measured as % treated/control calculated at 753 mg/kg (po); type: functional
[24] = tested on: Mus musculus; assay: In vivo activity tested against C3H mice bearing colon adenocarcinoma -38(colon-38) tumor measured as log Kill value was based on tumors that grew at 466 mg/kg (po); type: functional, organism-based; parameters: dose 466 mg/kg
[25] = tested on: Mus musculus; assay: In vivo activity tested against C3H mice bearing colon adenocarcinoma -38(colon-38) tumor measured as body weight loss at 466 mg/kg (po); type: functional
[26] = tested on: Mus musculus; assay: In vivo activity tested against C3H mice bearing colon adenocarcinoma -38(colon-38) tumor, measured as cures at 466 mg/kg (po); 3/5 cures; type: functional
[27] = tested on: Mus musculus; assay: In vivo activity tested against C3H mice bearing colon adenocarcinoma -38(colon-38) tumor measured as % treated/control calculated at 466 mg/kg (po); type: functional
[28] = tested on: Mus musculus; assay: In vivo activity tested against C3H mice bearing colon adenocarcinoma -38(colon-38) tumor measured as activity rating at 466 mg/kg (po); type: functional
[29] = tested on: Mus musculus; assay: In vivo activity tested against C3H mice bearing colon adenocarcinoma -38(colon-38) tumor measured as body weight loss at 753 mg/kg (po); type: functional
[30] = tested on: Mus musculus; assay: In vivo activity tested against C3H mice bearing colon adenocarcinoma -38(colon-38) tumor measured as activity rating at 753 mg/kg (po); type: functional
[31] = tested on: Mus musculus; assay: In vivo activity tested against C3H mice bearing colon adenocarcinoma -38(colon-38) tumor measured as log Kill value was based on tumors that grew at 753 mg/kg (po); type: functional, organism-based; parameters: dose 753 mg/kg
[32] = tested on: Mus musculus; assay: In vivo activity tested against C3H mice bearing panc-03 murine tumor measured as % treated/control calculated at 1530 mg/kg (po); type: functional
[33] = tested on: Mus musculus; assay: In vivo activity tested against C3H mice bearing panc-03 murine tumor measured as body weight loss at 1530 mg/kg (po); type: functional
[34] = tested on: Mus musculus; assay: In vivo activity tested against C3H mice bearing panc-03 murine tumor measured as log Kill value was based on tumors that grew at 1530 mg/kg (po); type: functional, organism-based; parameters: dose 1530 mg/kg
[35] = tested on: Mus musculus; assay: In vivo activity tested against C3H mice bearing panc-03 murine tumor measured as log Kill value was based on tumors that grew at 1310 mg/kg (po); type: functional, organism-based; parameters: dose 1310 mg/kg
[36] = tested on: Mus musculus; assay: In vivo activity tested against C3H mice bearing panc-03 murine tumor measured as body weight loss at 1310 mg/kg (po); type: functional
[37] = tested on: Mus musculus; assay: In vivo activity tested against C3H mice bearing panc-03 murine tumor measured as % treated/control calculated at 1310 mg/kg (po); type: functional
[38] = tested on: Mus musculus; assay: In vivo activity tested against C3H mice bearing panc-03 murine tumor measured as log Kill value was based on tumors that grew at 287 mg/kg (po); type: functional, organism-based; parameters: dose 287 mg/kg
[39] = tested on: Mus musculus; assay: In vivo activity tested against C3H mice bearing panc-03 murine tumor measured as % treated/control calculated at 287 mg/kg (po); type: functional
[40] = tested on: Mus musculus; assay: In vivo activity tested against C3H mice bearing panc-03 murine tumor measured as log Kill value was based on tumors that grew at 351 mg/kg (po); type: functional, organism-based; parameters: dose 351 mg/kg
[41] = tested on: Mus musculus; assay: In vivo activity tested against C3H mice bearing panc-03 murine tumor measured as body weight loss at 351 mg/kg (po); type: functional
[42] = tested on: Mus musculus; assay: In vivo activity tested against C3H mice bearing panc-03 murine tumor measured as % treated/control calculated at 351 mg/kg (po); type: functional
[43] = tested on: Mus musculus; assay: In vivo activity tested against C3H mice bearing panc-03 murine tumor measured as body weight loss at 287 mg/kg (po); type: functional
[44] = tested on: Mus musculus; assay: In vivo activity tested against C3H mice bearing panc-03 murine tumor measured as log Kill value was based on tumors that grew at 530 mg/kg (po); type: functional, organism-based; parameters: dose 530 mg/kg
[45] = tested on: Mus musculus; assay: In vivo activity tested against C3H mice bearing panc-03 murine tumor measured as % treated/control calculated at 530 mg/kg (po); type: functional
[46] = tested on: Mus musculus; assay: In vivo activity tested against C3H mice bearing panc-03 murine tumor measured as body weight loss at 530 mg/kg (po); type: functional

## CC(Oc1ccc(Oc2cnc3ccc(Cl)cc3n2)cc1)C1N=NN=N1 (stereo unspecified)
[1]
  T/C: >100%
[2]
  Body weight loss: 8.7%
[3]
  Log kill: kill value was NIL
[4]
  Activity rating: <0.7

## CC(Oc1ccc(Oc2cnc3cc(Cl)ccc3n2)cc1)C(=O)O (stereo unspecified) [QUIZALOFOP]
[5]
  Activity rating: <0.7
[6]
  Log kill: inactive
[7]
  Body weight loss: -4%
[8]
  T/C: >100%

## CNC(=O)C(C)Oc1ccc(Oc2cnc3ccc(Cl)cc3n2)cc1 (stereo unspecified)
[9]
  T/C: 4%
[10]
  Body weight loss: -14.5%
[11]
  Log kill: 4.2
[12]
  T/C: 39%
[13]
  Cures: 1
[14]
  Body weight loss: -9.3%
[15]
  Log kill: 1.2

## COc1ccc2ncc(Oc3ccc(OC(C)C(=O)O)cc3)nc2c1Cl (stereo unspecified)
[16]
  Body weight loss: 11.1%
[17]
  Log kill: 0
[18]
  T/C: 76%

## CC(Sc1ccc(Oc2cnc3ccc(Cl)cc3n2)cc1)C(=O)O (stereo unspecified)
[19]
  Activity rating: >2.8
[20]
  Activity rating: >2.8
[21]
  T/C: 100%

## CC(Oc1ccc(Oc2cnc3ccc(Br)cc3n2)cc1)C(=O)O (stereo unspecified)
[22]
  Cures: 2
[23]
  T/C: 0%
[24]
  Log kill: 2.1
[25]
  Body weight loss: -7%
[26]
  Cures: 3
[27]
  T/C: 0%
[28]
  Activity rating: 2.8
[29]
  Body weight loss: -12%
[30]
  Activity rating: >2.8
[31]
  Log kill: 3

## CC(Oc1ccc(Oc2cnc3ccc(Cl)cc3n2)cc1)C(=O)N(C)C (stereo unspecified)
[32]
  T/C: 16%
[33]
  Body weight loss: -3.8%
[34]
  Log kill: 2.2

## CC(Oc1ccc(Oc2cnc3ccc([N+](=O)[O-])cc3n2)cc1)C(=O)O (stereo unspecified)
[35]
  Log kill: 0.6
[36]
  Body weight loss: -3.5%
[37]
  T/C: 52%

## CC(Oc1ccc(Oc2cnc3cccc(Cl)c3n2)cc1)C(=O)O (stereo unspecified)
[38]
  Log kill: 0.1
[39]
  T/C: 69%
[40]
  Log kill: 0
[41]
  Body weight loss: -4%
[42]
  T/C: 74%
[43]
  Body weight loss: -3.9%

## CC(Oc1ccc(Oc2cnc3ccc(I)cc3n2)cc1)C(=O)O (stereo unspecified)
[44]
  Log kill: 1.8
[45]
  T/C: 15%
[46]
  Body weight loss: 0%
